Source: patent publication US10653173B2, “Method for masking unpleasant taste” (Analyticon Discovery GmbH, priority 2015, dated 2020)

Experiments:
[1] = Sensory panel: taste of combination with acesulfame-K; assay type: in vivo, human; details: 25 μM with 150 ppm acesulfame-K, pH neutral
Method: The sensory evaluation of the samples was performed by a team of five experienced assessors. The results may be taken from the following Table 4: [table]

[2] = Sensory panel: taste modulation of grapefruit juice; assay type: in vivo, human
Method: The sensory evaluation of the samples was performed by a team of five experienced assessors. Details may be taken from the following Table 7: [table]

[3] = Sensory panel: taste modulation of a potassium chloride solution; assay type: in vivo, human; details: 50 μM, pH neutral, 1,500 mg KCl in 100 ml water
Method: The sensory evaluation of the samples was performed by a team of five experienced assessors. Details may be taken from the following Table 9: [table]

[4] = Sensory panel: taste modulation of green tea; assay type: in vivo, human; details: vs 0.5% ethanol in tea
Method: The sensory evaluation of the samples was performed by a team of five experienced assessors. Details may be taken from the following Table 6: [table]

[5] = Sensory panel: taste of combination with saccharin; assay type: in vivo, human; details: 10 μM with 80 ppm saccharin, pH neutral
Method: The sensory evaluation of the samples was performed by a team of five experienced assessors. The results may be taken from the following Table 3: [table]

[6] = system: human bitter receptor cells; test: In-vitro assay: intracellular calcium mobilisation (Fluo-4 AM) in human bitter receptor cell line stimulated with saccharin; assay type: cell-based; details: human taste cells stimulated with 1 mM saccharin, fluorometric detection, 0.1-25 μM substance; read-out: IC50 (average inhibitory concentration of the antagonist)
Method: Human bitter receptor cells were established, and the activation of these cells was quantified in order to detect, by means of a cell-based test system, natural substances which reduce the bitterness of bitter principles. The change of the intracellular […] level was measured for quantitation of the activation of bitter receptor cells. In order to detect substances with inhibitory activity, a high-throughput cell-based in-vitro measurement system was established. […] The modulation of the intracellular […] level of the bitter receptor cells was quantitated by means of the […] fluorescence dye Fluo-4 AM in a microplate reader. […] The quantity of mobilised calcium may be quantitated by means of fluorescence, which increases in proportion with the concentration of calcium. […] 24 hours after seeding, the cells were dyed with 4 μM of the calcium-sensitive fluorescence dye Fluo-4 AM in HBSS (Hank's Balanced Salt Solution) buffer, and the mobilisation of calcium in living cells was measured in the microplate reader (FlexStation® […], Molecular Devices). […] The mobilisation of calcium was measured in the microplate reader at 37° C. The mobilisation of calcium was quantitated as the change of fluorescence (dF) after the addition of the substance, taking into account the basal fluorescence (F0) as dF/F0. […]

[7] = cited from earlier work

| Compound | Evaluation (taste with acesulfame-K) [1] | Bitter taste of freshly squeezed grapefruit juice [2] | Evaluation (taste of potassium chloride solution) [3] | Evaluation (taste of green tea) ([4]; 25 μM in Green tea) | Evaluation (taste of green tea) ([4]; 50 μM in Green tea) | Evaluation (taste with saccharin) [5] | IC50 [6] | Daily uptake considered harmless [7] |
| --- | --- | --- | --- | --- | --- | --- | --- | --- |
| CC(C)c1ccc2c(c1)CC[C@H]1[C@](C)(C(=O)O)CCC[C@]21C [dehydroabietic acid] | No bitter taste present any more | significant reduction of the bitter taste without negatively influencing the fruit aroma and the refreshing tartness | Less bitter than the comparison sample | Slightly bitter taste that quickly fades | As in 25 μM, but less astringent | Slightly bitter aftertaste | 1700 nM |  |
| C=C1C[C@@]23CC[C@H]4[C@@](C)(CCC[C@@]4(C)C(=O)O[C@@H]4O[C@H](CO)[C@@H](O)[C@H](O)[C@H]4O)[C@@H]2CC[C@]1(O[C@@H]1O[C@H](CO)[C@@H](O)[C@H](O)[C@H]1O[C@@H]1O[C@H](CO)[C@@H](O)[C@H](O)[C@H]1O)C3 [stevioside] |  |  |  |  |  |  |  | up to 4 mg per kilogramme of bodyweigh |
